Values after ≈ are worked out from the molar mass of the structure shown.
Experiments:
[1] = Compound stability in mouse liver microsomes; type: in vitro ADME; conditions: 37° C.
Experimental: A microsomal mixture comprising mouse liver microsomes and a potassium phosphate buffer was prepared at a concentration of 1.428 mg/mL in 2 mL tubes. 1.6 μL of test compound or imipramine as a positive control was added to the mixture, and 70 μL was transferred to a 96 well plate and pre-incubated at 37° C. for 5 minutes. After pre-incubation, […] 30 μL of NADPH (3.33 mM in potassium phosphate buffer) was added. The reaction mixtures were incubated at 37° C. for 15 and 45 minutes. Reactions without NADPH and buffer controls (minus NADPH) were conducted to rule out non-NADPH metabolism and chemical instability in the incubation buffer. The reactions were quenched with 100 μL ice cold acetonitrile containing an internal standard. The plates were centrifuged at 4000 RPM for 15 minutes and 100 μL aliquots were analyzed for parent compound disappearance by LC-MS/MS. The peak area ratios of analyte versus internal standard were used to calculate the percent remaining at the end of 45 minutes.

[2] = Pharmacokinetic study in rat, intravenous 1 mg/kg; type: in vivo
Experimental: (§1) Each mice PK study consisted of nine male C57BL/6 mice per group with sparse sampling design (n=3 mice per time point). The animals from intravenous groups were dosed with solution formulation of compounds via tail vein at 1 mg/kg dose. Ten compounds were screened in mice and one compound (the compound of Formula IV) was dosed in rat (n=3; serial sampling) following intravenous dose administration at 1 mg/kg dose. The solution formulation for compounds was prepared in 5% v/v DMA, 25% v/v PEG-400, and 70% v/v HPBCD (30% w/v); 15% v/v DMA, 5% Solutol HS-15, and 80% 1:1 PEG-300: Normal saline (2.25%); or 10% v/v DMA, 25% PEG-400, and 65% HPBCD (30% w/v solution). The dosing volume was 1 and 5 mL/kg for intravenous dose in rat and mice respectively. Blood samples (approximately 60 μL from mice and 120 μL from rats) were collected under light isoflurane anesthesia from a set of three mice at 0, 0.08, 0.25, 0.5, 1, 2, 4, 8, 12, and 24 hours post-dose. Plasma was harvested by centrifugation of blood and stored at −70±10° C. until analysis. Fit-for purpose LC-MS/MS method was developed and samples were processed by protein precipitation method. Non-Compartmental-Analysis tool of Phoenix WinNonlinR (Version 8.0) was used to assess the pharmacokinetic parameters. The areas under the concentration time curve (AUClast and AUCinf) were calculated by linear trapezoidal rule. The terminal elimination rate constant, Ke was determined by regression analysis of the linear terminal portion of the log plasma concentration-time curve. The terminal half-life (T1/2) was estimated at 0.693/ke. CLIV=Dose/AUCinf; Vss=MRT×CLIV.

[3] = Pharmacokinetic study in mice, intravenous 1 mg/kg; type: in vivo, C57BL/6 mice
Experimental: as §1

[4] = Solubility at pH 7.4; type: physicochemical; conditions: aqueous buffer, Table 1, 6-5 ring core
[5] = molecular target: 15-PGDH/HPGD (Homo sapiens (Human), UniProt P15428); assay: hPGDH inhibitor screening biochemical assay; conditions: Table 1, PGDH inhibitors with a 6-5 ring core; read-out: hPGDH: IC50
Method in brief: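 10 nM recombinant 15-PGDH was preincubated with compound (10-point) for 10 min at 37° C. in 50 mM Tris-HCl pH 7.5, 0.01% Tween 20. Then 15 μM PGE2 and 0.25 mM NAD+ were added for 10 min at rt. NADH fluorescence (ex/em 340/485 nm) gave % inhibition versus 1% DMSO and a four-parameter IC50.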

Sequence of 15-PGDH/HPGD (P15428 whole entry): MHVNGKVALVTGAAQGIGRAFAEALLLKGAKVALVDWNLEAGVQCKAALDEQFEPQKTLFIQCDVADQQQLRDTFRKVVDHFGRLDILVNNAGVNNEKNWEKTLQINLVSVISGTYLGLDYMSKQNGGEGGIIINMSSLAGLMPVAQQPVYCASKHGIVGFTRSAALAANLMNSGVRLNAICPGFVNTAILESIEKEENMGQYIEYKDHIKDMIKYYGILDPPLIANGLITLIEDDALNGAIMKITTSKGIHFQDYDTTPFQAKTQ

Row | % Remaining at 45 Minutes (Mouse Liver Microsomes + NADPH) [1] [%] | AUCinf [2] [ng·h/mL] | AUClast [2] [ng·h/mL] | C0/Cmax [2] [ng/mL] | CL [2] [mL/min/kg] | T1/2 [2] [min] | Vss [2] [L/kg] | AUCinf [3] [ng·h/mL] | AUClast [3] [ng·h/mL] | C0/Cmax [3] [ng/mL] | CL [3] [mL/min/kg] | T1/2 [3] [min] | Vss [3] [L/kg] | solubility [4] [µM] | IC50 [5] [nM] | Structure (SMILES)
1 | 71 | 106.55 | 105.58 | 985.98 | 158.60 | 7.2 | 0.86 |  |  |  |  |  |  |  |  | O=C(c1cnc2c(ccn2-c2ccc(CO)cc2)c1)N1CCCCC1 [Formula IV]
2 | 74 |  |  |  |  |  |  | 96.33 | 88.28 | 165.86 | 173.02 | 16.2 | 3.99 |  |  | O=C(c1cnc2c(ccn2-c2ccc(O)nc2)c1)N1CCCCC1 [Formula XIV]

The remaining lines, values behind:

Row | Structure (SMILES) | % Remaining at 45 Minutes (Mouse Liver Microsomes + NADPH) [1] [%] | AUCinf [2] [ng·h/mL] | AUClast [2] [ng·h/mL] | C0/Cmax [2] [ng/mL] | CL [2] [mL/min/kg] | T1/2 [2] [min] | Vss [2] [L/kg] | AUCinf [3] [ng·h/mL] | AUClast [3] [ng·h/mL] | C0/Cmax [3] [ng/mL] | CL [3] [mL/min/kg] | T1/2 [3] [min] | Vss [3] [L/kg] | solubility [4] [µM] | IC50 [5] [nM]
3 | COCCNC(=O)c1ccc(-n2ccc3cc(C(=O)N4CCC(F)CC4)cnc32)cc1 [Formula XI] | 84 |  |  |  |  |  |  | 131.66 | 130.44 | 663.41 | 126.59 | 9.6 | 1.39 |  | 
4 | COCCNC(=O)c1ccc(-n2ccc3cc(C(=O)N4CCCCC4)cnc32)cc1 [Formula X] | 89 |  |  |  |  |  |  | 147.4 | 146.28 | 1272.79 | 113.07 | 4.2 | 0.58 |  | 
5 | O=C(c1cnc2c(c1)ncn2-c1cccc(Cl)c1)N1CCCCC1 [drawing 103] |  |  |  |  |  |  |  |  |  |  |  |  |  | 21 (≈ 7.16 µg/mL) | 1.5
